Values after ≈ are worked out from the molar mass of the structure shown. Active and inactive are the calls of the source. The rule behind the calls is not given here.

Assay [1] concerns Candida albicans. Description: Antifungal activity against Candida albicans ATCC 24433 at 128 ug/ml by broth dilution method. It counts as functional, organism-based. A general note: Dilution methods test growth across graded concentrations, often in twofold steps.
Assay [2] has as its system Pichia kudriavzevii. In words: Antifungal activity against Candida krusei ATCC 6258 at 128 ug/ml by broth dilution method. It counts as functional, organism-based.
Assay [3] has as its system Candida tropicalis. Description: Antifungal activity against Candida tropicalis ATCC 750 at 128 ug/ml by broth dilution method. It counts as functional, organism-based.
In assay [4] the test system is Cryptococcus neoformans. In words: Antifungal activity against Cryptococcus neoformans ATCC 34664 at 128 ug/ml by broth dilution method. The class given is functional, organism-based.
Assay [5] deals with Nakaseomyces glabratus. In words: Antifungal activity against Candida glabrata ATCC 90030 at 128 ug/ml by broth dilution method. The class given is functional, organism-based.
The test system of assay [6] is Aspergillus niger. In words: Antifungal activity against Aspergillus niger ATCC 16404 at 128 ug/ml by broth dilution method. The class given is functional, organism-based.
In assay [7] the test system is Aspergillus fumigatus. In words: Antifungal activity against Aspergillus fumigatus ATCC 46645 at 128 ug/ml by broth dilution method. The class given is functional, organism-based.
For assay [8], the system named is Fusarium proliferatum. Description: Antifungal activity against Fusarium proliferatum ATCC 10052 at 128 ug/ml by broth dilution method. It counts as functional, organism-based.
Assay [9] has as its system Candida albicans. In words: Antifungal activity against Candida albicans ATCC 24433 by broth dilution method. The class given is functional.
Assay [10] relates to Nakaseomyces glabratus. In words: Antifungal activity against Candida glabrata ATCC 90030 by broth dilution method. It counts as functional.
The subject of assay [11] is Pichia kudriavzevii. Description: Antifungal activity against Candida krusei ATCC 6258 by broth dilution method. It counts as functional.
The test system of assay [12] is Candida tropicalis. In words: Antifungal activity against Candida tropicalis ATCC 750 by broth dilution method. The class given is functional.
The test system of assay [13] is Cryptococcus neoformans. Description: Antifungal activity against Cryptococcus neoformans ATCC 34664 by broth dilution method. It counts as functional.
In assay [14] the test system is Aspergillus niger. Description: Antifungal activity against Aspergillus niger ATCC 16404 by broth dilution method. It counts as functional.
For assay [15], the system named is Aspergillus fumigatus. Description: Antifungal activity against Aspergillus fumigatus ATCC 46645 by broth dilution method. It counts as functional.
Assay [16] has as its system Fusarium proliferatum. In words: Antifungal activity against Fusarium proliferatum ATCC 10052 by broth dilution method. The class given is functional.

For `COc1cc(CC(=O)O)ccc1OCC(O)(Cn1cncn1)c1ccc(F)cc1F` (racemic), the result in the assay on Candida albicans [1], in the assay with Pichia kudriavzevii [2], with Candida tropicalis [3], with Cryptococcus neoformans [4], in the assay with Nakaseomyces glabratus [5] and in the assay on Aspergillus niger [6] was inactive. Moreover, the result with Aspergillus fumigatus [7] and with Fusarium proliferatum [8] was inactive.
Regarding `C[C@@H]1[C@H](O)[C@@H](C)/C=C/C=C/C=C/C=C/C=C/C=C/C=C/[C@H](O[C@@H]2O[C@H](C)[C@@H](O)[C@H](N)[C@@H]2O)C[C@@H]2O[C@](O)(C[C@@H](O)C[C@@H](O)[C@H](O)CC[C@@H](O)C[C@@H](O)CC(=O)O[C@H]1C)C[C@H](O)[C@H]2C(=O)O` [AMPHOTERICIN B], the MIC50 is 0.25 mg/L (≈ 0.271 µM) against Candida albicans [9]; 0.25 mg/L (≈ 0.271 µM) in the assay with Nakaseomyces glabratus [10]; 0.5 mg/L (≈ 0.541 µM) against Pichia kudriavzevii [11]; 0.5 mg/L (≈ 0.541 µM) against Candida tropicalis [12]; 0.5 mg/L (≈ 0.541 µM) against Cryptococcus neoformans [13]; 0.25 mg/L (≈ 0.271 µM) against Aspergillus niger [14]. Moreover, the MIC50 in the assay on Aspergillus fumigatus [15] came out at 0.5 mg/L (≈ 0.541 µM); with Fusarium proliferatum [16], 2 mg/L (≈ 2.16 µM).

The MIC50 is the lowest concentration that inhibits either 50% of growth or 50% of the strains tested, depending on the study.
